In one test the target is human P2X2/3 receptor (Homo sapiens (Human), UniProt P56373+Q9UBL9). The test can be described thus: Intracellular calcium measurement (FLIPR, Fluo-4) of antagonist activity at human P2X2/3 receptors. Type of test: cell-based. The settings on record: human P2X2/3, FLIPR calcium assay, agonist α,β-Me-ATP; read-out: hP2X2/3 IC50. The essentials:
(§1)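 Antagonism quantified from peak calcium fluorescence (Fluo-4, FLIPR, 90 sec read) evoked by EC80 α,β-Me-ATP, after a 30 min, 37° C. compound pretreatment in 1% DMSO. Human P2X3- or P2X2/3-expressing cells used; triplicate means fitted for IC50, percent maximal inhibition and Hill coefficient.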

The next test concerns the target human P2X3 receptor (Homo sapiens (Human), UniProt P56373). Nature of the test: Intracellular calcium measurement (FLIPR, Fluo-4) of antagonist activity at human P2X3 receptors. Type of test: cell-based. The settings on record: read-out: hP2X3 IC50. A digest of the protocol: as §1
Where [1] appears, read: human P2X3, FLIPR calcium assay, agonist α,β-Me-ATP.

Our source for the IC50 values is patent publication US10174016B2 (BAYER AKTIENGESELLSCHAFT, priority 2014, dated 2019).

Structures are written as SMILES. Like-named read-outs stand apart in the source and are kept apart here.

human P2X3 receptor, sequence (P56373 whole entry): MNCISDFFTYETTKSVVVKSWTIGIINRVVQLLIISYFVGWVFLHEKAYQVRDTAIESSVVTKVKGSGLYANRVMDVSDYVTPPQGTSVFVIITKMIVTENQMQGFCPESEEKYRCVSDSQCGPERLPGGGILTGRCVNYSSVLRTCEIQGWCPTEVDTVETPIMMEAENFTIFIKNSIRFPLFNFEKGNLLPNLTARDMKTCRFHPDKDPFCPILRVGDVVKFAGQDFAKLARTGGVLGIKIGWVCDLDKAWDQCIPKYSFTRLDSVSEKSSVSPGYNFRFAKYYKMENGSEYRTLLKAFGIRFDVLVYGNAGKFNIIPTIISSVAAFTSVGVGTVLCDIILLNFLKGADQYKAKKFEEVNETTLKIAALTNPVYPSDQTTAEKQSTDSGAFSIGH
human P2X2/3 receptor, sequence (P56373 whole entry): as above
human P2X2/3 receptor, sequence (Q9UBL9 whole entry): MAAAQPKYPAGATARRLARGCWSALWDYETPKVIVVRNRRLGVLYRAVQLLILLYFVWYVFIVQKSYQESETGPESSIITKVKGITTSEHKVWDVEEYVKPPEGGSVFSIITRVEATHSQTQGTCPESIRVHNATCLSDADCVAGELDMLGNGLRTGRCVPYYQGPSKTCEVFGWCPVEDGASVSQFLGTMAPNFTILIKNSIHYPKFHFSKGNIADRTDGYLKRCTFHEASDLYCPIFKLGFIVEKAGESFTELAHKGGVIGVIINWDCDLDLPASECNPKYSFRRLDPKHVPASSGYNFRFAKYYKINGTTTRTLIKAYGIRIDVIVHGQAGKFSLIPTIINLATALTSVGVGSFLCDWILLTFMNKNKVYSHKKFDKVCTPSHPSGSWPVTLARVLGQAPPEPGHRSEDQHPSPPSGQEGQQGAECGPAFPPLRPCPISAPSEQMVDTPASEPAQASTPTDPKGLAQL

Take `CC(C)c1cnc(-c2cc(OC[C@H]3CCCO3)cc(C(=O)N[C@H](C)c3cnc(C(F)(F)F)nc3)c2)s1` [Example 275, 3-[5-(propan-2-yl)-1,3-thiazol-2-yl]-5-[(2R)-tetrahydrofuran-2-ylmethoxy]-N-{(1R)-1-[2-(trifluoromethyl)pyrimidin-5-yl]ethyl}benzamide]: the IC50 at human P2X2/3 receptor was determined as 191 nM; at human P2X3 receptor, 21 nM.

For `Cc1cnc(-c2cc(OC3CCS(=O)(=O)CC3)cc(C(=O)N[C@H](C)c3cnc(C(F)(F)F)nc3)c2)s1` [Example 232, 3-[(1,1-dioxidotetrahydro-2H-thiopyran-4-yl)oxy]-5-(5-methyl-1,3-thiazol-2-yl)-N-{(1R)-1-[2-(trifluoromethyl)pyrimidin-5-yl]ethyl}benzamide], the IC50 came to 759 nM at human P2X2/3 receptor and 13 nM at human P2X3 receptor (setting [1]).

`Cc1cnc(-c2cc(OCC34CC(CO3)N(C(C)C)C4)cc(C(=O)N[C@H](C)c3cnc(C(F)(F)F)nc3)c2)s1` (stereo partly drawn) [Example 405, 3-[(5-isopropyl-2-oxa-5-azabicyclo[2.2.1]hept-1-yl)methoxy]-5-(5-methyl-1,3-thiazol-2-yl)-N-{(1R)-1-[2-(trifluoromethyl)pyrimidin-5-yl]ethyl}benzamide]: the IC50 worked out at 1560 nM at human P2X2/3 receptor and 17 nM at human P2X3 receptor (setting [1]).

Consider `Cc1cnc(-c2cc(OC[C@H]3CN(C)CCO3)cc(C(=O)N[C@@H](C)c3cnc(C(F)(F)F)nc3)c2)s1` [Example 416, 3-{[(2R)-4-methylmorpholin-2-yl]methoxy}-5-(5-methyl-1,3-thiazol-2-yl)-N-{(1S)-1-[2-(trifluoromethyl)pyrimidin-5-yl]ethyl}benzamide], for which the figures for the IC50 at human P2X2/3 receptor and at human P2X3 receptor were at least 10000 nM and 227 nM, respectively.

With `Cc1cnc(-c2cc(OCC3CC3)cc(C(=O)N[C@H](C)c3nnc(C)s3)c2)s1` [Example 7, 3-(Cyclopropylmethoxy)-N-[(1R)-1-(5-methyl-1,3,4-thiadiazol-2-yl)ethyl]-5-(5-methyl-1,3-thiazol-2-yl)benzamide], the IC50 on human P2X2/3 receptor came to 106 nM; on human P2X3 receptor (setting [1]), 8 nM.

With `C[C@@H](NC(=O)c1cc(OC[C@H]2CN(C)CCO2)cc(-c2ncc(Cl)s2)c1)c1cnc(C(F)(F)F)nc1` [Example 367, 3-(5-chloro-1,3-thiazol-2-yl)-5-{[(2R)-4-methylmorpholin-2-yl]methoxy}-N-{(1R)-1-[2-(trifluoromethyl)pyrimidin-5-yl]ethyl}benzamide], the IC50 was 506 nM on human P2X2/3 receptor and 13 nM on human P2X3 receptor (setting [1]).

As to `Cc1cnc(-c2cc(OC3COC3)cc(C(=O)N[C@H](C)c3ccc(C(F)(F)F)nn3)c2)s1` [Example 161, 3-(5-methyl-1,3-thiazol-2-yl)-5-(oxetan-3-yloxy)-N-{(1R)-1-[6-(trifluoromethyl)pyridazin-3-yl]ethyl}benzamide], the IC50 was found to be 632 nM on human P2X2/3 receptor and 32 nM at human P2X3 receptor (setting [1]).

As to `Cc1cnc(-c2cc(OC[C@@H]3COCCO3)cc(C(=O)N[C@H](C)c3ccc(C(F)(F)F)nn3)c2)s1` [Example 182, 3-[(2S)-1,4-dioxan-2-ylmethoxy]-5-(5-methyl-1,3-thiazol-2-yl)-N-{(1R)-1-[6-(trifluoromethyl)pyridazin-3-yl]ethyl}benzamide], the IC50 on human P2X2/3 receptor was 1940 nM; on human P2X3 receptor (setting [1]), 63 nM.

Regarding `Cc1cnc(-c2cc(OC[C@H]3CCOC3)cc(C(=O)N[C@H](C)c3ccc(C(F)(F)F)nn3)c2)s1` [Example 72, 3-(5-Methyl-1,3-thiazol-2-yl)-5-[(3S)-tetrahydrofuran-3-ylmethoxy]-N-[(1R)-1-[6-(trifluoromethyl)pyridazin-3-yl]ethyl]benzamide], the IC50 at human P2X2/3 receptor turned out to be 330 nM; at human P2X3 receptor (setting [1]), 11 nM.

Take `Cc1cnc(-c2cc(OC3C4COCC3CN(C(C)C)C4)cc(C(=O)N[C@H](C)c3cnc(C(F)(F)F)nc3)c2)s1` (stereo partly drawn) [Example 344, 3-[(7-isopropyl-3-oxa-7-azabicyclo[3.3.1]non-9-yl)oxy]-5-(5-methyl-1,3-thiazol-2-yl)-N-{(1R)-1-[2-(trifluoromethyl)pyrimidin-5-yl]ethyl}benzamide]: the IC50 at human P2X2/3 receptor turned out to be 987 nM; at human P2X3 receptor (setting [1]), 34 nM.

Consider `Cc1ccc(CNC(=O)c2cc(OCC3CC3)cc(-c3ncc(C)s3)c2)nn1` [Example 2, 3-(Cyclopropylmethoxy)-N-[(6-methylpyridazin-3-yl)methyl]-5-(5-methyl-1,3-thiazol-2-yl)benzamide], for which the IC50 on human P2X2/3 receptor worked out at 251 nM; at human P2X3 receptor (setting [1]) it was 19 nM.

`Cc1ncc([C@@H](C)NC(=O)c2cc(OCC3CC3)cc(-c3ncc(C)s3)c2)cn1` [Example 10, 3-(Cyclopropylmethoxy)-N-[(1R)-1-(2-methylpyrimidin-5-yl)ethyl]-5-(5-methyl-1,3-thiazol-2-yl)benzamide]: the IC50 on human P2X2/3 receptor came to 185 nM; at human P2X3 receptor (setting [1]), 7 nM.

As for `Cc1cnc(CNC(=O)c2cc(OC3CCOCC3)cc(-c3ncc(C)s3)c2)cn1` [Example 83, N-[(5-Methylpyrazin-2-yl)methyl]-3-(5-methyl-1,3-thiazol-2-yl)-5-(tetrahydro-2H-pyran-4-yloxy)benzamide], the results for the IC50 at human P2X2/3 receptor and on human P2X3 receptor (setting [1]) were 1160 nM and 125 nM, respectively.

In the case of `Cc1cnc(-c2cc(OC[C@H]3COCCN3C)cc(C(=O)N[C@H](C)c3ccc(C(F)(F)F)nn3)c2)s1` [Example 388, 3-{[(3R)-4-methylmorpholin-3-yl]methoxy}-5-(5-methyl-1,3-thiazol-2-yl)-N-{(1R)-1-[6-(trifluoromethyl)pyridazin-3-yl]ethyl}benzamide], the IC50 at human P2X2/3 receptor turned out to be 1350 nM; at human P2X3 receptor (setting [1]) it was 18 nM.

As to `CC#CCOc1cc(C(=O)N[C@H](C)c2ccc(C)nn2)cc(-c2ncc(C)s2)c1` [Example 191, 3-(but-2-yn-1-yloxy)-N-[(1R)-1-(6-methylpyridazin-3-yl)ethyl]-5-(5-methyl-1,3-thiazol-2-yl) benzamide], the IC50 was 364 nM at human P2X2/3 receptor and 61 nM at human P2X3 receptor (setting [1]).

As to `Cc1ccc([C@@H](C)NC(=O)c2cc(OC3CCOCC3)cc(-c3ncc(C)s3)c2)nn1` [Example 87, N-[(1R)-1-(6-Methylpyridazin-3-yl)ethyl]-3-(5-methyl-1,3-thiazol-2-yl)-5-(tetrahydro-2H-pyran-4-yloxy)benzamide], the IC50 on human P2X2/3 receptor came out at 119 nM; on human P2X3 receptor (setting [1]), 15 nM.

As to `Cc1cnc(-c2cc(OC[C@H]3CNCCO3)cc(C(=O)N[C@@H](C)c3cnc(C(F)(F)F)nc3)c2)s1` [Example 413, 3-(5-methyl-1,3-thiazol-2-yl)-5-[(2R)-morpholin-2-ylmethoxy]-N-{(1S)-1-[2-(trifluoromethyl)pyrimidin-5-yl]ethyl}benzamide], the IC50 at human P2X2/3 receptor is at least 10000 nM; on human P2X3 receptor (setting [1]), 597 nM.

Regarding `Cc1cnc(-c2cc(OC3CCS(=O)(=O)CC3)cc(C(=O)N[C@H](C)c3ccc(C(F)(F)F)nc3)c2)s1` [Example 233, 3-[(1,1-dioxidotetrahydro-2H-thiopyran-4-yl)oxy]-5-(5-methyl-1,3-thiazol-2-yl)-N-{(1R)-1-[6-(trifluoromethyl)pyridin-3-yl]ethyl}benzamide], the IC50 on human P2X2/3 receptor amounted to 753 nM; at human P2X3 receptor (setting [1]), 16 nM.

In the case of `CC#CCOc1cc(C(=O)N[C@H](C)c2nnc(C)s2)cc(-c2ncc(C)s2)c1` [Example 41, 3-(But-2-yn-1-yloxy)-N-[(1R)-1-(5-methyl-1,3,4-thiadiazol-2-yl)ethyl]-5-(5-methyl-1,3-thiazol-2-yl)benzamide], the IC50 was determined as 1590 nM on human P2X2/3 receptor and 130 nM on human P2X3 receptor (setting [1]).

Regarding `Cc1cnc(-c2cc(OCC3(F)CNC3)cc(C(=O)N[C@H](C)c3cnc(C(F)(F)F)nc3)c2)s1` [Example 358, 3-[(3-fluoroazetidin-3-yl)methoxy]-5-(5-methyl-1,3-thiazol-2-yl)-N-{(1R)-1-[2-(trifluoromethyl)pyrimidin-5-yl]ethyl}benzamide], the IC50 at human P2X2/3 receptor was 1440 nM; on human P2X3 receptor (setting [1]), 57 nM.

Take `Cc1ccc(CNC(=O)c2cc(OC3CCOCC3)cc(-c3ncc(C4CCC4)s3)c2)nn1` [Example 237, 3-(5-cyclobutyl-1,3-thiazol-2-yl)-N-[(6-methylpyridazin-3-yl)methyl]-5-(tetrahydro-2H-pyran-4-yloxy)benzamide]: the IC50 on human P2X2/3 receptor came to 537 nM; on human P2X3 receptor (setting [1]) it was 177 nM.

Take `Cc1cnc(-c2cc(OC[C@@H]3CN(C)C(=O)CO3)cc(C(=O)N[C@H](C)c3cnc(C(F)(F)F)nc3)c2)s1` [Example 401, 3-{[(2S)-4-methyl-5-oxomorpholin-2-yl]methoxy}-5-(5-methyl-1,3-thiazol-2-yl)-N-{(1R)-1-[2-(trifluoromethyl)pyrimidin-5-yl]ethyl}benzamide]: the IC50 stood at 1470 nM at human P2X2/3 receptor and 30 nM at human P2X3 receptor (setting [1]).

Turning to `Cc1cnc(-c2cc(OCC3CN(C)CCO3)cc(C(=O)N[C@H](C)c3cnc(C(F)(F)F)nc3)c2)s1` (stereo partly drawn) [Example 353, 3-{[4-methylmorpholin-2-yl]methoxy}-5-(5-methyl-1,3-thiazol-2-yl)-N-{(1R)-1-[2-(trifluoromethyl)pyrimidin-5-yl]ethyl}benzamide], the IC50 at human P2X2/3 receptor stood at 427 nM; at human P2X3 receptor (setting [1]), 7 nM.

In the case of `Cc1cnc(-c2cc(OC[C@@H]3CCCN3C)cc(C(=O)N[C@H](C)c3cnc(C(F)(F)F)nc3)c2)s1` [Example 378, 3-{[(2S)-1-methylpyrrolidin-2-yl]methoxy}-5-(5-methyl-1,3-thiazol-2-yl)-N-{(1R)-1-[2-(trifluoromethyl)pyrimidin-5-yl]ethyl}benzamide], the IC50 at human P2X2/3 receptor was found to be 3750 nM; at human P2X3 receptor (setting [1]), 60 nM.

For the molecule `Cc1cnc(-c2cc(O[C@H]3CCN(C)C3)cc(C(=O)N[C@H](C)c3cnc(C(F)(F)F)nc3)c2)s1` [Example 142, 3-{[(3S)-1-Methylpyrrolidin-3-yl]oxy}-5-(5-methyl-1,3-thiazol-2-yl)-N-{(1R)-1-[2-(trifluoromethyl)pyrimidin-5-yl]ethyl}benzamide], the values for the IC50 at human P2X2/3 receptor and at human P2X3 receptor (setting [1]) were 222 nM and 6 nM, respectively.
